Source: US9668948B2, “Products and methods for reducing malodor from the pudendum” (priority 2009, dated 2017)

Tests used:
[1] = 1 gram in ... ml of water; 25° C.; cited from earlier work
Clostridium sporogenes = test: Suppression of trimethylamine (TMA) formation from choline by bacterial culture, headspace GC/FID; format: cell-based; conditions: added to the culture solution (internal standard mix)
Method: A viable method was developed for the assay of trimethylamine (TMA). The method utilizes triethylamine and methanol together as internal standards and choline as the substrate for generating TMA from the bacterial species. The bacterial culture for these studies was Clostridium sporogenes, which was grown in house at BioScreen.
Tests were conducted with a headspace gas chromatograph to verify that Clostridium sporogenes bacterial could actively generating trimethylamine from a choline substrate.
Equipment for the testing included a Trace GC Ultra gas chormoatograph and a Varian CP-Volamine column. An FID detector was used with 2.5 mL/min helium flow.
The bacterial species C. sporogenes, a species found in the lower GI tract. was inoculated into 100 mL of Fluid Thioglycolate medium and incubated at 35±2° C. for a minimum of 16 hours. At the end of incubation, the concentration of the bacterial suspension was confirmed by serial dilution in 9 mL PBS up to 10^−7 and anaerobic incubation at 32.5±2.5° C. for a minimum of 48 hours. Counts were recorded from dilution plates with 25 to 250 colonies. The average counts were multiplied by the reciprocal of the dilution factor to furnish the CFU/mL of the bacterial species. […]

| Molecule | solubility in water: ml of water for 1 gram [1] | effect on reactivity of the bacterial culture with choline (Clostridium sporogenes) |
| --- | --- | --- |
| O=C(O)C(O)c1ccccc1 (centres unmarked) [mandelic acid] | 6.3 mL |  |
| benzalkonium chloride |  | stops further reactivity |
